Results: PubChem BioAssay AID248 (DTP/NCI, 2004)
Values joined by “and” are separate entries in the source; they are usually repeats but may differ in a detail not shown here. Identical values can stand only once. Inconclusive results and toxic doses are left out. Cut-off read from the data, not from the text of the source: active = T/C of 150% or more; inactive = T/C below 125%.

System: L1210 leukemia ip in BDF1 mice, survival T/C
Experiment: NCI In Vivo Anticancer Drug Screen. Data for tumor model L1210 Leukemia (intraperitoneal) in B6D2F1 (BDF1) mice
Conditions: endpoint: mean survival time, higher = longer survival
Summary of the method: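 Value reflects the ratio of survival in compound-treated mice to survival in vehicle-treated controls, with both groups carrying the same transplanted tumor.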

[1] = dose: 100.0 mg/kg/injection, schedule: Q01DX001 (ip), vehicle: saline
[2] = dose: 200.0 mg/kg/injection, schedule: Q01DX001 (ip), vehicle: saline
[3] = dose: 400.0 mg/kg/injection, schedule: Q01DX001 (ip), vehicle: saline

Measured: T/C

CC(=O)OCC1OC(n2cnc3c(=O)[nH]nnc32)C(OC(C)=O)C1OC(C)=O (configuration not stated)
inactive: dose: 100.0 mg/kg/injection, schedule: Q01DX005 (ip), vehicle: saline 96 % of control | dose: 100.0 mg/kg/injection, schedule: Q01DX009 (ip), vehicle: saline 94 % of control | dose: 200.0 mg/kg/injection, schedule: Q01DX005 (ip), vehicle: saline 104 % of control | dose: 200.0 mg/kg/injection, schedule: Q01DX009 (ip), vehicle: saline 92 % of control | dose: 400.0 mg/kg/injection, schedule: Q01DX009 (ip), vehicle: saline 99 % of control

NC(c1ccccc1)(c1ccccc1)c1ccccc1
inactive: [1] 101 % of control | [2] 101 % of control | [3] 101 % of control

COc1ccc(NC(=O)Nc2ccccc2OC)cc1
inactive: dose: 100.0 mg/kg/injection, schedule: Q01DX009 (ip), vehicle: saline with Tween-80 98 % of control | dose: 100.0 mg/kg/injection, schedule: Q04DX003 (ip), vehicle: saline with Tween-80 105 % of control | dose: 200.0 mg/kg/injection, schedule: Q01DX009 (ip), vehicle: saline with Tween-80 101 % of control | dose: 200.0 mg/kg/injection, schedule: Q04DX003 (ip), vehicle: saline with Tween-80 97 % of control | dose: 400.0 mg/kg/injection, schedule: Q01DX009 (ip), vehicle: saline with Tween-80 98 % of control | dose: 400.0 mg/kg/injection, schedule: Q04DX003 (ip), vehicle: saline with Tween-80 103 % of control

ClCCCSc1ccccc1
inactive: [1] 96 % of control and 111 % of control | [2] 96 % of control and 98 % of control | [3] 97 % of control and 98 % of control
